From patent US20170000133A1, “BENZOXABOROLE FUNGICIDES” (SYNGENTA PARTICIPATIONS AG, priority 2013, published 2017)

Tests used:
[1] = system: Pythium ultimum; experiment: Pythium ultimum / liquid culture (seedling damping off); type: cell-based; details: Globisporangium ultimum; 200 ppm; potato dextrose broth, 24° C., 2-3 days after application; read-out: disease control (inhibition of growth determined photometrically)
[2] = system: Phytophthora infestans; experiment: whole plant or invertebrate; type: in vivo; details: in Solanum lycopersicum, foliar, read-out: disease control
[3] = system: Monographella nivalis (Microdochium nivale); experiment: Monographella nivalis (Microdochium nivale) / liquid culture (foot rot cereals); type: cell-based; details: PDB potato dextrose broth, 24° C., 4-5 days after application, read-out: disease control (inhibition of growth determined photometrically)
[4] = system: Plasmopara viticola; experiment: whole plant or invertebrate; type: in vivo; details: foliar, read-out: disease control
[5] = system: Mycosphaerella arachidis (Cercospora arachidicola); experiment: Mycosphaerella arachidis (Cercospora arachidicola) / liquid culture (early leaf spot); type: cell-based; details: PDB potato dextrose broth, 24° C., 4-5 days after application, read-out: disease control (inhibition of growth determined photometrically)
Procedure, shortened: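 Conidia from cryogenic storage mixed into potato dextrose broth and added to compound at 200 ppm in DMSO. Incubation at 24° C.; growth inhibition read photometrically 4-5 days after application.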

[6] = system: Glomerella lagenarium (Colletotrichum lagenarium); experiment: Glomerella lagenarium (Colletotrichum lagenarium) / liquid culture (anthracnose); type: cell-based; details: Colletotrichum orbiculare, PDB potato dextrose broth, 24° C., 3-4 days after application, read-out: disease control (inhibition of growth measured photometrically)
Procedure, shortened: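 Conidia of G. lagenarium from cryogenic storage were suspended in potato dextrose broth and added to test compound in DMSO at 200 ppm. Plates were incubated at 24° C, and growth inhibition was read photometrically 3-4 days after application.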

[7] = system: Gaeumannomyces graminis; experiment: Gaeumannomyces graminis / liquid culture (take-all of cereals); type: cell-based; details: PDB potato dextrose broth, 24° C., 4-5 days after application, read-out: disease control (inhibition of growth determined photometrically)
Procedure, shortened: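 Cryo-stored mycelial fragments in potato dextrose broth exposed to compound in DMSO at 200 ppm. Incubated at 24 °C; growth inhibition read photometrically 4–5 days after application.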

[8] = system: Mycosphaerella graminicola (Septoria tritici); experiment: Mycosphaerella graminicola (Septoria tritici) / liquid culture (Septoria blotch); type: cell-based; details: Zymoseptoria tritici, PDB potato dextrose broth, 24° C., 4-5 days after application, read-out: disease control (inhibition of growth determined photometrically)
Procedure, shortened: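 Conidia from cryostorage were suspended in potato dextrose broth and added to test compound in DMSO at 200 ppm in microtiter wells. Plates were incubated at 24° C and growth inhibition measured photometrically 4-5 days after application.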

[9] = system: Fusarium culmorum; experiment: microbe, parasite or virus in culture; type: cell-based; details: read-out: disease control (inhibition of growth determined visually)
[10] = system: Thanatephorus cucumeris (Rhizoctonia solani); experiment: Thanatephorus cucumeris (Rhizoctonia solani) / liquid culture (foot rot, damping-off); type: cell-based; details: PDB potato dextrose broth, 24° C., 3-4 days after application, read-out: disease control (inhibition of growth determined photometrically)
Procedure, shortened: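 Mycelial fragments from fresh liquid culture were suspended in potato dextrose broth and added to compound in DMSO at 200 ppm. After 3-4 days at 24 °C, growth inhibition was measured photometrically.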

COC(CNC(=O)c1cc2c(cc1F)COB2O)OC [Compound 53]
inhibition at 200 ppm [1]: ≥ 80%
melting point: 150 to 152 °C

C#CC1(NC(=O)c2cc3c(cc2F)COB3O)CCCCC1 [Compound 90]
pest or weed control at 200 ppm [2]: ≥ 80%
inhibition at 200 ppm [1]: ≥ 80%
inhibition at 200 ppm [3]: ≥ 80%

O=C(NCc1ccco1)c1cc2c(cc1F)COB2O [Compound 144]
pest or weed control at 200 ppm [4]: ≥ 80%
inhibition at 200 ppm [5]: ≥ 80%
inhibition at 200 ppm [1]: ≥ 80%
inhibition at 200 ppm [6]: ≥ 80%
inhibition at 200 ppm [7]: ≥ 80%
melting point: 158 to 160 °C
inhibition at 200 ppm [8]: ≥ 80%
inhibition at 200 ppm [3]: ≥ 80%

O=C(NCc1cccc(Cl)c1)c1cc2c(cc1F)COB2O [Compound 119]
pest or weed control at 200 ppm [2]: ≥ 80%
pest or weed control at 200 ppm [4]: ≥ 80%
inhibition at 200 ppm [1]: ≥ 80%

CC(=O)COC(=O)c1cc2c(cc1F)COB2O [Compound 448]
inhibition at 200 ppm [1]: ≥ 80%
melting point: 122 to 124 °C
inhibition at 200 ppm [3]: ≥ 80%

C[Si](C)(C)COC(=O)c1cc2c(cc1F)COB2O [Compound 429]
pest or weed control at 200 ppm [4]: ≥ 80%
inhibition at 200 ppm [1]: ≥ 80%
inhibition at 200 ppm [6]: ≥ 80%
inhibition at 200 ppm [9]: ≥ 80%
inhibition at 200 ppm [10]: ≥ 80%
inhibition at 200 ppm [7]: ≥ 80%
melting point: 122 to 124 °C
inhibition at 200 ppm [8]: ≥ 80%
inhibition at 200 ppm [3]: ≥ 80%

O=C(Nc1cc(-c2ccccc2)[nH]n1)c1cc2c(cc1F)COB2O [Compound 182]
pest or weed control at 200 ppm [2]: ≥ 80%
pest or weed control at 200 ppm [4]: ≥ 80%
inhibition at 200 ppm [1]: ≥ 80%

N#CCCOC(=O)c1cc2c(cc1Cl)COB2O [Compound 231]
pest or weed control at 200 ppm [2]: ≥ 80%
inhibition at 200 ppm [1]: ≥ 80%

CC(=O)COC(=O)c1cc2c(cc1Cl)COB2O [Compound 450]
pest or weed control at 200 ppm [4]: ≥ 80%
inhibition at 200 ppm [1]: ≥ 80%
inhibition at 200 ppm [7]: ≥ 80%
melting point: 134 to 136 °C

COC(COC(=O)c1ccc2c(c1)B(O)OC2)OC [Compound 443]
inhibition at 200 ppm [1]: ≥ 80%
melting point: 110 to 112 °C

O=C(NCc1ccccc1C(F)(F)F)c1cc2c(cc1F)COB2O [Compound 132]
pest or weed control at 200 ppm [2]: ≥ 80%
pest or weed control at 200 ppm [4]: ≥ 80%
inhibition at 200 ppm [1]: ≥ 80%
inhibition at 200 ppm [6]: ≥ 80%
inhibition at 200 ppm [7]: ≥ 80%
inhibition at 200 ppm [3]: ≥ 80%

CC(C)c1ccc(NC(=O)c2cc3c(cc2F)COB3O)cc1 [Compound 146]
inhibition at 200 ppm [1]: ≥ 80%
inhibition at 200 ppm [6]: ≥ 80%
inhibition at 200 ppm [9]: ≥ 80%
melting point: 184 to 186 °C
inhibition at 200 ppm [8]: ≥ 80%
inhibition at 200 ppm [3]: ≥ 80%

O=C(NCc1ccccc1OC(F)(F)F)c1cc2c(cc1F)COB2O [Compound 128]
pest or weed control at 200 ppm [2]: ≥ 80%
inhibition at 200 ppm [1]: ≥ 80%

O=C(OCCO)c1ccc2c(c1)B(O)OC2 [Compound 244]
inhibition at 200 ppm [1]: ≥ 80%
melting point: 122 to 124 °C
inhibition at 200 ppm [3]: ≥ 80%

COc1ccc(-c2ccccc2)cc1NC(=O)c1cc2c(cc1Cl)COB2O [Compound 129]
pest or weed control at 200 ppm [2]: ≥ 80%
inhibition at 200 ppm [1]: ≥ 80%
inhibition at 200 ppm [7]: ≥ 80%
inhibition at 200 ppm [8]: ≥ 80%
inhibition at 200 ppm [3]: ≥ 80%

O=C(OCc1ccc(C(F)(F)F)nc1)c1cc2c(cc1Cl)COB2O [Compound 217]
pest or weed control at 200 ppm [2]: ≥ 80%
inhibition at 200 ppm [1]: ≥ 80%
inhibition at 200 ppm [6]: ≥ 80%
inhibition at 200 ppm [7]: ≥ 80%
inhibition at 200 ppm [3]: ≥ 80%

CC(C#N)OC(=O)c1cc2c(cc1Cl)COB2O (stereo not shown) [Compound 193]
pest or weed control at 200 ppm [2]: ≥ 80%
inhibition at 200 ppm [1]: ≥ 80%

NC(=O)c1cc2c(cc1F)COB2O [Compound 436]
inhibition at 200 ppm [1]: ≥ 80%
melting point: 216 to 218 °C

COC(=O)c1cc2cc(NC(=O)c3cc4c(cc3F)COB4O)ccc2s1 [Compound 163]
pest or weed control at 200 ppm [2]: ≥ 80%
inhibition at 200 ppm [1]: ≥ 80%

COC(CNC(=O)c1cc2c(cc1Cl)COB2O)OC [Compound 435]
melting point: 150 to 152 °C

CC(=O)C(C)OC(=O)c1cc2c(cc1Cl)COB2O (stereo not shown) [Compound 451]
pest or weed control at 200 ppm [4]: ≥ 80%
inhibition at 200 ppm [5]: ≥ 80%
inhibition at 200 ppm [1]: ≥ 80%
inhibition at 200 ppm [7]: ≥ 80%
melting point: 102 to 104 °C
inhibition at 200 ppm [8]: ≥ 80%
inhibition at 200 ppm [3]: ≥ 80%

O=C(NCc1ccc(Cl)nc1)c1cc2c(cc1F)COB2O [Compound 138]
pest or weed control at 200 ppm [2]: ≥ 80%
inhibition at 200 ppm [1]: ≥ 80%

O=C(NCCSCc1ccccc1)c1cc2c(cc1Cl)COB2O [Compound 59]
pest or weed control at 200 ppm [2]: ≥ 80%
inhibition at 200 ppm [1]: ≥ 80%

COC(COC(=O)c1cc2c(cc1F)COB2O)OC [Compound 444]
inhibition at 200 ppm [1]: ≥ 80%
melting point: 109 to 111 °C

CC(=O)C(C)OC(=O)c1ccc2c(c1)B(O)OC2 (stereo not shown) [Compound 447]
inhibition at 200 ppm [1]: ≥ 80%
inhibition at 200 ppm [7]: ≥ 80%
melting point: 110 to 112 °C
inhibition at 200 ppm [3]: ≥ 80%

O=C(OCCO)c1cc2c(cc1Cl)COB2O [Compound 440]
inhibition at 200 ppm [1]: ≥ 80%
melting point: 270 to 272 °C

CON(C)C(=O)c1cc2c(cc1F)COB2O [Compound 51]
inhibition at 200 ppm [1]: ≥ 80%
melting point: 144 to 146 °C

O=C(OCCOc1ccc(Cl)cc1)c1ccc2c(c1)B(O)OC2 [Compound 352]
inhibition at 200 ppm [5]: ≥ 80%
inhibition at 200 ppm [1]: ≥ 80%
inhibition at 200 ppm [10]: ≥ 80%
inhibition at 200 ppm [7]: ≥ 80%
melting point: 122 to 124 °C
inhibition at 200 ppm [8]: ≥ 80%
inhibition at 200 ppm [3]: ≥ 80%

O=C(NCCSCc1ccccc1)c1cc2c(cc1F)COB2O [Compound 84]
pest or weed control at 200 ppm [2]: ≥ 80%
pest or weed control at 200 ppm [4]: ≥ 80%
inhibition at 200 ppm [1]: ≥ 80%

O=C(NCc1ccc(Oc2ccccc2)cc1)c1cc2c(cc1F)COB2O [Compound 136]
inhibition at 200 ppm [5]: ≥ 80%
inhibition at 200 ppm [1]: ≥ 80%
inhibition at 200 ppm [6]: ≥ 80%
melting point: 178 to 180 °C
inhibition at 200 ppm [8]: ≥ 80%
inhibition at 200 ppm [3]: ≥ 80%

O=C(NCC1CCCO1)c1cc2c(cc1F)COB2O (stereo not shown) [Compound 94]
pest or weed control at 200 ppm [2]: ≥ 80%
inhibition at 200 ppm [1]: ≥ 80%

O=C(Oc1ccccn1)c1cc2c(cc1F)COB2O [Compound 442]
inhibition at 200 ppm [1]: ≥ 80%
inhibition at 200 ppm [10]: ≥ 80%
melting point: 213 to 215 °C
inhibition at 200 ppm [3]: ≥ 80%

CC(=O)c1sc(NC(=O)c2cc3c(cc2F)COB3O)nc1C [Compound 181]
pest or weed control at 200 ppm [2]: ≥ 80%
inhibition at 200 ppm [1]: ≥ 80%
inhibition at 200 ppm [3]: ≥ 80%

COc1ccc(CNC(=O)c2cc3c(cc2F)COB3O)cc1 [Compound 124]
pest or weed control at 200 ppm [2]: ≥ 80%
pest or weed control at 200 ppm [4]: ≥ 80%
inhibition at 200 ppm [1]: ≥ 80%

O=C(OCC(F)F)c1cc2c(cc1Cl)COB2O [Compound 236]
pest or weed control at 200 ppm [2]: ≥ 80%
inhibition at 200 ppm [1]: ≥ 80%
inhibition at 200 ppm [6]: ≥ 80%
inhibition at 200 ppm [7]: ≥ 80%
inhibition at 200 ppm [8]: ≥ 80%
inhibition at 200 ppm [3]: ≥ 80%

CCOC(=O)C1CC=CCC1NC(=O)c1cc2c(cc1F)COB2O (stereo not shown) [Compound 78]
pest or weed control at 200 ppm [2]: ≥ 80%
inhibition at 200 ppm [1]: ≥ 80%
inhibition at 200 ppm [7]: ≥ 80%

O=C(NCc1ccc2c(c1)OCCO2)c1cc2c(cc1F)COB2O [Compound 121]
pest or weed control at 200 ppm [2]: ≥ 80%
pest or weed control at 200 ppm [4]: ≥ 80%
inhibition at 200 ppm [1]: ≥ 80%

O=C(NCc1ccc2c(c1)OCCO2)c1cc2c(cc1Cl)COB2O [Compound 87]
pest or weed control at 200 ppm [2]: ≥ 80%
inhibition at 200 ppm [1]: ≥ 80%

O=C(OCCO)c1cc2c(cc1F)COB2O [Compound 243]
inhibition at 200 ppm [1]: ≥ 80%
melting point: 274 to 276 °C

CC(=O)C(C)OC(=O)c1cc2c(cc1F)COB2O (stereo not shown) [Compound 445]
inhibition at 200 ppm [1]: ≥ 80%
melting point: 108 to 110 °C

COC(CNC(=O)c1ccc2c(c1)B(O)OC2)OC [Compound 242]
inhibition at 200 ppm [1]: ≥ 80%
melting point: 148 to 150 °C

COC(=O)C(C)OC(=O)c1cc2c(cc1Cl)COB2O (stereo not shown) [Compound 206]
pest or weed control at 200 ppm [2]: ≥ 80%
inhibition at 200 ppm [1]: ≥ 80%
inhibition at 200 ppm [10]: ≥ 80%

C#CCCCOC(=O)c1ccc2c(c1)B(O)OC2 [Compound 334]
pest or weed control at 200 ppm [4]: ≥ 80%
inhibition at 200 ppm [5]: ≥ 80%
inhibition at 200 ppm [1]: ≥ 80%
inhibition at 200 ppm [6]: ≥ 80%
inhibition at 200 ppm [9]: ≥ 80%
inhibition at 200 ppm [10]: ≥ 80%
inhibition at 200 ppm [7]: ≥ 80%
inhibition at 200 ppm [8]: ≥ 80%
inhibition at 200 ppm [3]: ≥ 80%
